# According to PubChem BioAssay (NCI):
#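 Briefly, cells in 96-well plates were exposed to five compound concentrations for 48 h, and endpoints were estimated by linear interpolation. At the GI50, growth is halved. TGI denotes the concentration required for complete inhibition of growth.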
# Tests used:
# Assay in all cases: NCI-60 cell line screen, 48 h
# 786-0 renal = system: 786-0 renal
# A498 renal = system: A498 renal
# A549 NSCLC = system: A549 NSCLC
# ACHN renal = system: ACHN renal
# BT-549 breast = system: BT-549 breast
# CAKI-1 renal = system: CAKI-1 renal
# CCRF-CEM leukemia = system: CCRF-CEM leukemia
# COLO 205 colon = system: COLO 205 colon
# DU-145 prostate = system: DU-145 prostate
# EKVX NSCLC = system: EKVX NSCLC
# HCT-116 colon = system: HCT-116 colon
# HCT-15 colon = system: HCT-15 colon
# HL-60(TB) leukemia = system: HL-60(TB) leukemia
# HOP-62 NSCLC = system: HOP-62 NSCLC
# HOP-92 NSCLC = system: HOP-92 NSCLC
# HS 578T breast = system: HS 578T breast
# HT29 colon = system: HT29 colon
# IGROV1 ovarian = system: IGROV1 ovarian
# K-562 leukemia = system: K-562 leukemia
# KM12 colon = system: KM12 colon
# LOX IMVI melanoma = system: LOX IMVI melanoma
# M14 melanoma = system: M14 melanoma
# MALME-3M melanoma = system: MALME-3M melanoma
# MCF7 breast = system: MCF7 breast
# MDA-MB-231 breast = system: MDA-MB-231 breast
# MDA-MB-435 = system: MDA-MB-435
# MOLT-4 leukemia = system: MOLT-4 leukemia
# NCI-H226 lung = system: NCI-H226 lung
# NCI-H23 lung = system: NCI-H23 lung
# NCI-H460 lung = system: NCI-H460 lung
# NCI-H522 lung = system: NCI-H522 lung
# NCI/ADR-RES ovarian = system: NCI/ADR-RES ovarian
# OVCAR-3 ovarian = system: OVCAR-3 ovarian
# OVCAR-4 ovarian = system: OVCAR-4 ovarian
# OVCAR-5 ovarian = system: OVCAR-5 ovarian
# OVCAR-8 ovarian = system: OVCAR-8 ovarian
# PC-3 prostate = system: PC-3 prostate
# RPMI-8226 leukemia = system: RPMI-8226 leukemia
# RXF 393 renal = system: RXF 393 renal
# SF-268 CNS = system: SF-268 CNS
# SF-295 CNS = system: SF-295 CNS
# SF-539 CNS = system: SF-539 CNS
# SK-MEL-2 melanoma = system: SK-MEL-2 melanoma
# SK-MEL-28 melanoma = system: SK-MEL-28 melanoma
# SK-MEL-5 melanoma = system: SK-MEL-5 melanoma
# SK-OV-3 ovarian = system: SK-OV-3 ovarian
# SNB-19 CNS = system: SNB-19 CNS
# SNB-75 CNS = system: SNB-75 CNS
# SR leukemia = system: SR leukemia
# SW-620 colon = system: SW-620 colon
# T-47D breast = system: T-47D breast
# TK-10 renal = system: TK-10 renal
# U251 CNS = system: U251 CNS
# UACC-257 melanoma = system: UACC-257 melanoma
# UACC-62 melanoma = system: UACC-62 melanoma
# UO-31 renal = system: UO-31 renal
compound,measurement,setting,value
CN(C)c1ccc2c(c1)OC(N)=C(C#N)C2c1ccc2c(c1)CCCN2C (configuration not stated),GI50,786-0 renal,4.33 µM
same,TGI,786-0 renal,> 100 µM
same,GI50,A498 renal,0.228 µM
same,TGI,A498 renal,4.07 µM
same,GI50,A549 NSCLC,2.03 µM
same,TGI,A549 NSCLC,> 100 µM
same,GI50,ACHN renal,4.63 µM
same,TGI,ACHN renal,64.6 µM
same,GI50,BT-549 breast,2.03 µM
same,TGI,BT-549 breast,13.2 µM
same,GI50,CAKI-1 renal,3.33 µM
same,TGI,CAKI-1 renal,> 100 µM
same,GI50,CCRF-CEM leukemia,3.01 µM
same,TGI,CCRF-CEM leukemia,49.2 µM
same,GI50,COLO 205 colon,2.44 µM
same,TGI,COLO 205 colon,6.51 µM
same,GI50,DU-145 prostate,3.51 µM
same,TGI,DU-145 prostate,> 100 µM
same,GI50,EKVX NSCLC,3.79 µM
same,TGI,EKVX NSCLC,> 100 µM
same,GI50,HCT-116 colon,1.6 µM
same,TGI,HCT-116 colon,14.6 µM
same,GI50,HCT-15 colon,0.789 µM
same,TGI,HCT-15 colon,> 100 µM
same,GI50,HL-60(TB) leukemia,2.81 µM
same,TGI,HL-60(TB) leukemia,8.7 µM
same,GI50,HOP-62 NSCLC,1.83 µM
same,TGI,HOP-62 NSCLC,54.1 µM
same,GI50,HOP-92 NSCLC,2.82 µM
same,TGI,HOP-92 NSCLC,57 µM
same,GI50,HS 578T breast,2.13 µM
same,TGI,HS 578T breast,> 100 µM
same,GI50,HT29 colon,2.62 µM
same,TGI,HT29 colon,8.23 µM
same,GI50,IGROV1 ovarian,4.03 µM
same,TGI,IGROV1 ovarian,> 100 µM
same,GI50,K-562 leukemia,0.493 µM
same,TGI,K-562 leukemia,> 100 µM
same,GI50,KM12 colon,0.783 µM
same,TGI,KM12 colon,> 100 µM
same,GI50,LOX IMVI melanoma,1.97 µM
same,TGI,LOX IMVI melanoma,19.2 µM
same,GI50,M14 melanoma,1.29 µM
same,TGI,M14 melanoma,18.5 µM
same,GI50,MALME-3M melanoma,16.3 µM
same,TGI,MALME-3M melanoma,58.9 µM
same,GI50,MCF7 breast,0.444 µM
same,TGI,MCF7 breast,33.4 µM
same,GI50,MDA-MB-231 breast,3.52 µM
same,TGI,MDA-MB-231 breast,> 100 µM
same,GI50,MDA-MB-435,0.305 µM
same,TGI,MDA-MB-435,1.28 µM
same,GI50,MOLT-4 leukemia,3.38 µM
same,TGI,MOLT-4 leukemia,24.5 µM
same,GI50,NCI-H226 lung,5.44 µM
same,TGI,NCI-H226 lung,71 µM
same,GI50,NCI-H23 lung,2.83 µM
same,TGI,NCI-H23 lung,92.1 µM
same,GI50,NCI-H460 lung,1.92 µM
same,TGI,NCI-H460 lung,24.9 µM
same,GI50,NCI-H522 lung,0.274 µM
same,TGI,NCI-H522 lung,1.47 µM
same,GI50,NCI/ADR-RES ovarian,1.12 µM
same,TGI,NCI/ADR-RES ovarian,9.08 µM
same,GI50,OVCAR-3 ovarian,0.691 µM
same,TGI,OVCAR-3 ovarian,10.3 µM
same,GI50,OVCAR-4 ovarian,5.01 µM
same,TGI,OVCAR-4 ovarian,> 100 µM
same,GI50,OVCAR-5 ovarian,59 µM
same,TGI,OVCAR-5 ovarian,> 100 µM
same,GI50,OVCAR-8 ovarian,3.2 µM
same,TGI,OVCAR-8 ovarian,27.5 µM
same,GI50,PC-3 prostate,2.64 µM
same,TGI,PC-3 prostate,> 100 µM
same,GI50,RPMI-8226 leukemia,4.07 µM
same,TGI,RPMI-8226 leukemia,31 µM
same,GI50,RXF 393 renal,1.43 µM
same,TGI,RXF 393 renal,5.58 µM
same,GI50,SF-268 CNS,6.85 µM
same,TGI,SF-268 CNS,> 100 µM
same,GI50,SF-295 CNS,0.708 µM
same,TGI,SF-295 CNS,6.51 µM
same,GI50,SF-539 CNS,2.28 µM
same,TGI,SF-539 CNS,8.16 µM
same,GI50,SK-MEL-2 melanoma,1.68 µM
same,TGI,SK-MEL-2 melanoma,28.6 µM
same,GI50,SK-MEL-28 melanoma,11 µM
same,TGI,SK-MEL-28 melanoma,86.3 µM
same,GI50,SK-MEL-5 melanoma,0.733 µM
same,TGI,SK-MEL-5 melanoma,12.8 µM
same,GI50,SK-OV-3 ovarian,2.52 µM
same,TGI,SK-OV-3 ovarian,25.8 µM
same,GI50,SNB-19 CNS,4.26 µM
same,TGI,SNB-19 CNS,> 100 µM
same,GI50,SNB-75 CNS,2.27 µM
same,TGI,SNB-75 CNS,> 100 µM
same,GI50,SR leukemia,0.648 µM
same,TGI,SR leukemia,16.6 µM
same,GI50,SW-620 colon,0.938 µM
same,TGI,SW-620 colon,> 100 µM
same,GI50,T-47D breast,11.7 µM
same,TGI,T-47D breast,51.6 µM
same,GI50,TK-10 renal,10.2 µM
same,TGI,TK-10 renal,91.7 µM
same,GI50,U251 CNS,2.6 µM
same,TGI,U251 CNS,21.9 µM
same,GI50,UACC-257 melanoma,10.5 µM
same,TGI,UACC-257 melanoma,45.1 µM
same,GI50,UACC-62 melanoma,1.55 µM
same,TGI,UACC-62 melanoma,33.9 µM
same,GI50,UO-31 renal,5.15 µM
same,TGI,UO-31 renal,78.5 µM
